Results taken from US4435396A, “Antiulcer 2-guanidino-4-(2-substituted-amino-4-imidazolyl)thiazoles and process therefor” (Pfizer Inc., priority 1982, dated 1984).
Values joined by “and” are separate entries in the source; they are usually repeats but may differ in a detail not shown here. Equal values may be shown once.

Tests used:
[1] = system: ethanol-induced ulceration in rats; assay: Inhibition of ethanol-induced ulceration in rats; format: in vivo, rat; conditions: oral dose of 30 mg/kg; for inhibition in vivo at 30 mg/kg: Rattus norvegicus, po
Protocol: The antiulcer activity of the products of this invention was also determined by an ethanol-induced rat ulcer assay. […] One hour after the ethanol challenge the animals (8/group) are killed and the stomachs examined for the presence of lesions. After sacrifice the abdomen is opened and a locking hemostat placed at the pylorus. Six ml of a 4% solution of formaldehyde was injected into the stomach with a gastric feeding tube and a second locking hemostat was used to seal the esophagus. The stomach was removed, opened along the greater curvature and examined for ulceration.
The scoring system used to quantitate the ethanol-induced lesions is given below.
For each group of animals an ulcer index is calculated as follows:
Ulceration Index=(the sum of the scores of the group)×(the sum of the number of ulcers in the group)×(the fraction of the group having any incidence of ulceration).
The percentage inhibition of ulcers is calculated as follows:
% Inhibition=100×[(ulcer index controls)-(ulcer index
drug-treated)].div.(ulcer index controls).

Heidenhain pouch dogs = assay: Gastric acid antisecretory activity in pentagastrin-stimulated conscious Heidenhain pouch dogs; format: in vivo, dog; conditions: intravenously
Protocol: The gastric acid antisecretory activity of compounds of the present invention was determined in overnight fasted, conscious Heidenhain pouch dogs. Pentagastrin (Pentavolon-Ayerst) was used to stimulate acid output by continuous infusion into a superficial leg vein at doses earlier determined to stimulate near maximal acid output from the gastric pouch. Gastric juice was collected at 30 minute intervals following the start of a pentagastrin infusion and measured to the nearest 0.1 ml. Ten collections were taken for each dog during an experiment. Acid concentration was determined by tritrating 1.0 ml of gastric juice to pH 7.4 with 0.1 N sodium hydroxide using an Autoburette and a glass electrode pH meter (Radiometer).
Drug or vehicle was given intravenously 90 minutes following the start of the pentagastrin infusion, at a dose of 1 mg/kg or less. Gastric acid antisecretory effects were calculated by comparing the lowest acid output after drug administration with the mean acid output immediately before drug.

H2 -receptor = molecular target: T1, H2 -receptor (Cavia porcellus, UniProt P47747); assay: Histamine-H2 antagonist activity in isolated guinea pig right atria; format: cell-based; conditions: histamine dose-response, read-out: pA2 (apparent dissociation constant of the H2-receptor antagonist) (converted)
T1 construct: the heart removed and the right atria dissected free; from tissue; host or cells: guinea pig right atria
Protocol: The histamine-H2 antagonist activity of compounds of the present invention was determined by the following procedure:
Guinea pigs are killed rapidly with a blow to the head, the heart removed and the right atria dissected free. Atria are suspended, isometrically, in a temperature-controlled (32°±2°) tissue bath (10 ml) containing oxygenated (95% O2; 5% CO2) Krebs-Henseleit buffer (pH 7.4) and are allowed to stabilize approximately one hour during which time the tissue bath is flushed several times. Individual atrial contractions are followed with a force-displacement transducer connected to a cardiotachometer and Grass polygraph recorder. After obtaining a dose-response curve to histamine, the bath containing each atrium is flushed several times with fresh buffer and the atria reequilibrated to basal rates. Following the return to basal rate, test compounds are addded at selected final concentrations and the histamine dose-response curve is again determined in the presence of antagonist. Results are expressed as dose-ratios, the ratio of histamine concentrations required to produce one-half of maximal stimulation in the presence and absence of antagonist, and the apparent dissociation constant of the H2 -receptor antagonist pA2, is determined.

[2] = dose of 1 mg/kg, pentagastrin-stimulated Heidenhain pouch dogs

T1 sequence (P47747 whole entry): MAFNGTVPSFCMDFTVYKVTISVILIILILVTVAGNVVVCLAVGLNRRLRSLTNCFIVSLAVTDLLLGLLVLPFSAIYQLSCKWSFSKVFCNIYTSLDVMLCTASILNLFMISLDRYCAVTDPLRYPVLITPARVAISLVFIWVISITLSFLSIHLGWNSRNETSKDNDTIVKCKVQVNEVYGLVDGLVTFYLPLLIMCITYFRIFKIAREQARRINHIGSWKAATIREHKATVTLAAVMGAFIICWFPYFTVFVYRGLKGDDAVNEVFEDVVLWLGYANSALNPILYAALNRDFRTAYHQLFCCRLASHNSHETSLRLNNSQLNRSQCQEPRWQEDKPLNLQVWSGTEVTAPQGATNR

For `NC(N)=Nc1nc(-c2c[nH]c(N3CCOCC3)n2)cs1` [product aa], the “inhibition of ethanol-induced ulceration” value [1] was “no significant activity”.
`NC(N)=Nc1nc(-c2c[nH]c(N3CCCC3)n2)cs1` [product bb] gave an inhibition in vivo at 30 mg/kg [1] of no less than 19%.
With `NC(N)=Nc1nc(-c2c[nH]c(N3CCCCC3)n2)cs1` [product cc] the “inhibition of gastric secretion” value (Heidenhain pouch dogs; 0.1 mg/kg, Heidenhain pouch dogs) was 72%, the “inhibition of gastric secretion” value (Heidenhain pouch dogs; [2]) was “at least 21%” and the inhibition in vivo at 30 mg/kg [1] was no less than 19%.
`CC(C)CCNc1nc(-c2csc(N=C(N)N)n2)c[nH]1` [product m] showed an inhibition in vivo at 30 mg/kg [1] of no less than 19%.
For `NC(N)=Nc1nc(-c2c[nH]c(NC3CC3)n2)cs1` [product n], the “inhibition of gastric secretion” value (Heidenhain pouch dogs; [2]) was “at least 21%”, the “inhibition of gastric secretion” value (Heidenhain pouch dogs; dose of 3 microg/kg, Heidenhain pouch dogs) was 42% and the Kb (H2 -receptor) was ≤ 1260 nM and ≤ 100 nM and 1.58 nM. For the same compound, the inhibition in vivo at 30 mg/kg [1] was 7 to 13%.
With `NC(N)=Nc1nc(-c2c[nH]c(NC3CCCC3)n2)cs1` [product o] the Kb (H2 -receptor) was no more than 1260 nM and the “inhibition of ethanol-induced ulceration” value [1] was “no significant activity”.
Work on `NC(N)=Nc1nc(-c2c[nH]c(NC3CCCCC3)n2)cs1` [product p] yielded an inhibition in vivo at 30 mg/kg [1] of 7 to 13%.
`NC(N)=Nc1nc(-c2c[nH]c(NCc3ccccc3)n2)cs1` [product q] gave an inhibition in vivo at 30 mg/kg [1] of 7 to 13%.
For `NC(N)=Nc1nc(-c2c[nH]c(NCCc3ccccc3)n2)cs1` [product r], the “inhibition of gastric secretion” value (Heidenhain pouch dogs; [2]) was “at least 21%”.
`NC(N)=Nc1nc(-c2c[nH]c(NCCCc3ccccc3)n2)cs1` [product s] was tested, and the Kb (H2 -receptor) was no more than 100 nM and the inhibition in vivo at 30 mg/kg [1] was 86 to 100%.
In the case of `NC(N)=Nc1nc(-c2c[nH]c(NCCCCc3ccccc3)n2)cs1` [product t], the Kb (H2 -receptor) is reported as no more than 100 nM and the inhibition in vivo at 30 mg/kg [1] is reported as 86 to 100%.
Compound `NC(N)=Nc1nc(-c2c[nH]c(NCCc3ccncc3)n2)cs1` [product u] has an inhibition in vivo at 30 mg/kg [1] of 21 to 51%.
In the case of `NC(N)=Nc1nc(-c2c[nH]c(NCCc3ccccn3)n2)cs1` [product v], the “inhibition of ethanol-induced ulceration” value [1] is reported as “no significant activity”.
For `NC(N)=Nc1nc(-c2c[nH]c(NCCc3ccc(Cl)cc3)n2)cs1` [product w], the “inhibition of gastric secretion” value (Heidenhain pouch dogs; the same (1 mg/kg) or a lower dose, Heidenhain pouch dogs) was “at least 97%” and the Kb (H2 -receptor) was no more than 100 nM.
For `CN(C)c1nc(-c2csc(N=C(N)N)n2)c[nH]1` [product x], the “inhibition of ethanol-induced ulceration” value [1] was “no significant activity”.
`CCN(C)c1nc(-c2csc(N=C(N)N)n2)c[nH]1` [product y] showed an inhibition in vivo at 30 mg/kg [1] of no less than 19%.
`CCN(CC)c1nc(-c2csc(N=C(N)N)n2)c[nH]1` [product z] was tested, and the inhibition in vivo at 30 mg/kg [1] was no less than 19%.
